One data set in a line: physchem.
Conditions: not given
For the molecule `CCC1CCC(=O)O1` (racemic) [GAMMA HEXALACTONE, (+ −)-4-HEXANOLIDE], the lipophilicity (logP) came to 0.6.

For the molecule `CCOc1cc(C=O)ccc1O` [ETHYL VANILLIN, 3-ethoxy-4-hydroxybenzaldehyde], the log partition coefficient (logP) came out at 1.58.

A further data set can be described thus: logP of fragrance raw materials and fragrances.
Conditions: not given
With `CCCC(C)C(=O)OCC` (racemic) [(+ −)-ETHYL 2-METHYLPENTANOATE], the logP amounted to 2.76.

In the case of `CCCCCCC1CCC(=O)O1` (racemic) [DECALACTONE CP, (+ −)-4-DECANOLIDE], the lipophilicity (logP) turned out to be 2.72. With `C=CC(C)CCCC(C)(C)O` (racemic) [DIHYDROMYRCENOL PURE, (+ −)-2,6-DIMETHYL-7-OCTEN-2-OL], the logP came out at 3.47. Turning to `CC(=O)/C(C)=C/C1C(C)=CCCC1(C)C` (racemic) [ISORALDEINE 70 P, (+ −)-(3E)-3-methyl-4-(2,6,6-trimethyl-2-cyclohexen-1-yl)-3-buten-2-one], the logP worked out at 4.84. Turning to `CC1/C=C/CCCCCCCCCCC(=O)C1` (racemic) [MUSCENONE DELTA, (+ −)-(4E)-3-METHYL-4-CYCLOPENTADECEN-1-ONE], the log partition coefficient (logP) was determined as 5.75. `CCCCCC1(C)CCC(C)(C)C1=O` (racemic) [VELOUTONE, (+ −)-2,2,5-trimethyl-5-pentylcyclopentanone] had a lipophilicity (logP) of 4.34. The same measure, in the same setting: then `Cc1ccc2c(c1)OCC(=O)CO2` [CALONE ®, 7-methyl-2H-1,5-benzodioxepin-3(4H)-one], with 2.43; and `CC(C)(O)CCC1CCCCC1` [CORANOL, 4-CYCLOHEXYL-2-METHYL-2-BUTANOL], with 3.98.

In the case of `O=C1CCCCCCCCCCCCCCO1` [EXALTOLIDE ®, oxacyclohexadecan-2-one], the lipophilicity (logP) was determined as 6.15. The same measure, in the same setting: next, `CCOC(=O)CC1(C)OCCO1` [FRUCTONE ®, ETHYL 2-METHYL-1,3-DIOXOLANE-2-ACETATE]: 1.3; `CC(C)=CCCC(C)=CCO` [GERANIOL LJ]: 3.47. For the molecule `COC(=O)/C=C/c1ccccc1` [METHYL CINNAMATE, METHYL (E)-3-PHENYL-2-PROPENOATE], the logP amounted to 2.62.

In the case of `COC(=O)c1c(C)cc(O)c(C)c1O` [MOUSSE CRISTAL, METHYL 2,4-DIHYDROXY-3,6-DIMETHYLBENZOATE], the log partition coefficient (logP) is 3.22. In the case of `CC(C)=CC1CC(C)CCO1` (centres unmarked) [ROSE OXIDE, TETRAHYDRO-4-METHYL-2-(2-METHYL-1-PROPENYL)-2H-PYRAN], the lipophilicity (logP) worked out at 3.58. Same read-out and setting: then `CCC(=O)OC1CC2CC1C1CC=CC21` (centres unmarked) [VERDYL PROPIONATE, TRICYCLO[5.2.1.0(2,6)]DEC-3-EN-8-YL PROPANOATE], with 3.34.

The data set is the same for the next values; noted with them: single raw materials of fragrances F1-F4 (Tables 1-4).
For “1-OXA-12/13-CYCLOHEXADECEN-2-ONE [HABANOLIDE ®]”, the logP is listed as 4.88. As for 2/3-METHYLBUTYL ACETATE [AMYL ACETATE], the logP worked out at 2.26. As to `CCC(=O)OCC(C)(C)O[C@@H](C)[C@@H]1CCCC(C)(C)C1` [HELVETOLIDE ®, (+)-(1S,1′R)-2[1-(3′,3′-DIMETHYL-1′-CYCLOHEXYL)ETHOXY]-2-METHYLPROPYL PROPANOATE], the logP is reported as 5.51.

Turning to `CC1=CC(C)C(C=O)C(C)C1` (centres unmarked) [ISOCYCLOCITRAL], the logP is reported as 3.27. `OCCCc1ccccc1` [PHENYLPROPYL ALCOHOL, 3-PHENYL-1-PROPANOL] had a logP of 1.88.

Turning to “ALLYL (2/3-METHYLBUTOXY)ACETATE [ALLYL AMYL GLYCOLATE]”, the lipophilicity (logP) is listed as 2.34.

The term logP denotes the decadic logarithm of the partition coefficient of the neutral form, usually between octanol and water. Low values mean lower lipophilicity, high ones higher lipophilicity.

These data come from US11504310B2, “Aqueous microemulsion” (Firmenich SA, priority 2017, dated 2022).
